From patent publication US20260091026A1, “METHODS OF TREATING INFLAMMATORY DISEASES” (INTERLINE THERAPEUTICS, INC., priority 2023, published 2026) come the findings set out here.

Broadly, the IC50 is the concentration that inhibits the measured activity by half.

Assay [1] has as its system THP1-Dual cells, NF-κB pathway (SEAP). Kind of assay: THP-1 Dual cell SEAP assay (L18-MDP stimulated). The conditions noted are these: Homo sapiens, 10 ng/mL L18-MDP, 20-24 h, SEAP readout, read-out: IFNγ THP1 IC50. The class given is cell-based. In short, it runs like this:
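IC50 values come from non-linear fits of % inhibition of SEAP, measured as QUANTI-Blue optical density (620-655 nm, 2 h) in media-blanked supernatants. These were taken from THP1-Dual cells treated with compound for 30 min before overnight exposure to 10 ng/mL L18-MDP final at 37 °C.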

The next assay concerns the target T1, RIPK2 (KD)/XIAP (BIR2) (Homo sapiens, UniProt O43353).
T1 construct: made in house; host or cells: baculovirus-infected Sf9 cells
Kind of assay: RIPK2-XIAP binding competition PPI assay (TR-FRET). The conditions noted are these: for Emax: 50 nM of GSK583 = -100% activity, read-out: PPI Amax; for IC50: GST-RIPK2 / His-XIAP (BIR2)-avi, 120 min at 23° C. In short, it runs like this:
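After 2 h at 23 °C, complex formation was read as the 665/520 nm emission ratio (337 nm excitation), scaled between uninhibited reaction and 50 nM GSK583. The mix held 1 nM human RIPK2 kinase fragment-GST, 25 nM His-tagged XIAP BIR2 and Tb/XL665 antibodies in pH 7.5 Tris buffer containing vanadate and glycerophosphate.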

A value given as a limit tells only on which side of the number the result lay.

T1 sequence (O43353 1-310): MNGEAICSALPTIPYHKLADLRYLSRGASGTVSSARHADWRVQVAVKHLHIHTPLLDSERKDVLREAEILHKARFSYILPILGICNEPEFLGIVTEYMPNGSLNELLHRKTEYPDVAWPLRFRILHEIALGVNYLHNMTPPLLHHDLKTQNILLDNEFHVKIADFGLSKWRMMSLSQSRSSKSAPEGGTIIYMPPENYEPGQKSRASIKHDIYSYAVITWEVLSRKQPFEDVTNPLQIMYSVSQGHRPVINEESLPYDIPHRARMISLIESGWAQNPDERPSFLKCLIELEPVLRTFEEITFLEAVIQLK

`C[C@@H](NC(=O)c1cc(-c2cnc3cc(OCCO)c(S(=O)(=O)C(C)(C)C)cn23)nn1C1COC1)c1ncccc1F` [Example 139, (R)-3-(6-(tert-butylsulfonyl)-7-(2-hydroxyethoxy)imidazo[1,2-a]pyridin-3-yl)-N-(1-(3-fluoropyridin-2-yl)ethyl)-1-(oxetan-3-yl)-1H-pyrazole-5-carboxamide]: the concentration for half-maximal inhibition (IC50) in assay [1] was in the range of 100 to 500 nM. For the same compound, on RIPK2 (KD)/XIAP (BIR2), the Emax was ≥ 80% and the IC50 is 10 to 100 nM.

Regarding `COc1cc2ncc(-c3cc(C(=O)NCc4ccccc4CO)n(C)n3)n2cc1S(=O)(=O)C(C)(C)C` [Example 74, 3-(6-(tert-butylsulfonyl)-7-methoxyimidazo[1,2-a]pyridin-3-yl)-N-(2-(hydroxymethyl)benzyl)-1-methyl-1H-pyrazole-5-carboxamide], the IC50 in assay [1] fell in the range of 500 to 2500 nM. Besides, at RIPK2 (KD)/XIAP (BIR2), the Emax was ≥ 80% and the half-maximal inhibitory concentration (IC50) lay within 10 to 100 nM.

For `COc1cc2ncnc(-c3cc(C(=O)N[C@H](C)c4ccccc4)n(C)n3)c2cc1S(=O)(=O)C(C)(C)C` [Example 192, (R)-3-(6-(tert-butylsulfonyl)-7-methoxyquinazolin-4-yl)-1-methyl-N-(1-phenylethyl)-1H-pyrazole-5-carboxamide], the 50% inhibitory concentration (IC50) in assay [1] fell in the range of 500 to 2500 nM. For the same compound, at RIPK2 (KD)/XIAP (BIR2), the Emax is ≥ 80% and the half-inhibitory concentration (IC50) fell in the range of 10 to 100 nM.

With `COc1cc2ncc(-c3cc(C(=O)N[C@H](C)c4cn(C)cn4)n(C)n3)n2cc1S(=O)(=O)C(C)(C)C` [Example 56, (R)-3-(6-(tert-butylsulfonyl)-7-methoxyimidazo[1,2-a]pyridin-3-yl)-1-methyl-N-(1-(1-methyl-1H-imidazol-4-yl)ethyl)-1H-pyrazole-5-carboxamide], in assay [1], the IC50 is > 2500 nM. Further, on RIPK2 (KD)/XIAP (BIR2), the Emax was ≥ 80% and the IC50 is 100 to 1000 nM.

Take `CCn1nc(-c2cnc3cc(OCCO)c(S(=O)(=O)C(C)(C)C)cn23)cc1C(=O)N[C@H](C)c1cc(C)sn1` [Example 132, (R)-3-(6-(tert-butylsulfonyl)-7-(2-hydroxyethoxy)imidazo[1,2-a]pyridin-3-yl)-1-ethyl-N-(1-(5-methylisothiazol-3-yl)ethyl)-1H-pyrazole-5-carboxamide]: the values for the IC50 (in assay [1]; at RIPK2 (KD)/XIAP (BIR2)) were < 100 nM and < 10 nM, respectively. The Emax at RIPK2 (KD)/XIAP (BIR2) was ≥ 80%.

Turning to `COc1cc2ncc(-c3cc(C(=O)NCc4ccncc4)n(C)n3)n2cc1S(=O)(=O)C(C)(C)C` [Example 29, 3-(6-(tert-butylsulfonyl)-7-methoxyimidazo[1,2-a]pyridin-3-yl)-1-methyl-N-(pyridin-4-ylmethyl)-1H-pyrazole-5-carboxamide], the IC50 is > 2500 nM in assay [1] and > 1000 nM at RIPK2 (KD)/XIAP (BIR2). Moreover, the Emax at RIPK2 (KD)/XIAP (BIR2) was ≤ 30%.

For `C[C@@H](NC(=O)c1cc(-c2cnc3cc(OCCO)c(S(=O)(=O)C(C)(C)C)cn23)nn1C)c1ccccn1` [Example 109, (R)-3-(6-(tert-butylsulfonyl)-7-(2-hydroxyethoxy)imidazo[1,2-a]pyridin-3-yl)-1-methyl-N-(1-(pyridin-2-yl)ethyl)-1H-pyrazole-5-carboxamide], the IC50 in assay [1] lay within 100 to 500 nM. In addition, at RIPK2 (KD)/XIAP (BIR2), the Emax is ≥ 80% and the half-maximal inhibitory concentration (IC50) was 10 to 100 nM.

With `CCn1nc(-c2cnc3cc(OCCO)c(S(=O)(=O)C(C)(C)C)cn23)cc1C(=O)NCc1nccs1` [Example 127, 3-(6-(tert-butylsulfonyl)-7-(2-hydroxyethoxy)imidazo[1,2-a]pyridin-3-yl)-1-ethyl-N-(thiazol-2-ylmethyl)-1H-pyrazole-5-carboxamide], the IC50 in assay [1] was < 100 nM. On RIPK2 (KD)/XIAP (BIR2), the Emax is ≥ 80% and the concentration for half-maximal inhibition (IC50) is < 10 nM.

`COc1cc2ncc(-c3cc(C(=O)NCc4nn(C)c5ccccc45)n(C)n3)n2cc1S(=O)(=O)C(C)(C)C` [Example 15, 3-(6-(tert-butylsulfonyl)-7-methoxyimidazo[1,2-a]pyridin-3-yl)-1-methyl-N-((1-methyl-1H-indazol-3-yl)methyl)-1H-pyrazole-5-carboxamide]: in assay [1], the half-maximal inhibitory concentration (IC50) was > 2500 nM. Also, on RIPK2 (KD)/XIAP (BIR2), the Emax lay within 55 to 80% and the IC50 fell in the range of 100 to 1000 nM.

As for `COc1cc2ncc(-c3cc(C(=O)N[C@H](C)c4ccccn4)n(CCCO)n3)n2cc1S(=O)(=O)C(C)(C)C` [Example 144, (R)-3-(6-(tert-butylsulfonyl)-7-methoxyimidazo[1,2-a]pyridin-3-yl)-1-(3-hydroxypropyl)-N-(1-(pyridin-2-yl)ethyl)-1H-pyrazole-5-carboxamide], the results for the IC50 (in assay [1]; at RIPK2 (KD)/XIAP (BIR2)) were 100 to 500 nM and 10 to 100 nM, respectively. For the same compound, the Emax on RIPK2 (KD)/XIAP (BIR2) is ≥ 80%.

Take `COc1cc2ncc(-c3cc(C(=O)N[C@H](C)c4ccccn4)n(C4CC4)n3)n2cc1S(=O)(=O)C(C)(C)C` [Example 99, (R)-3-(6-(tert-butylsulfonyl)-7-methoxyimidazo[1,2-a]pyridin-3-yl)-1-cyclopropyl-N-(1-(pyridin-2-yl)ethyl)-1H-pyrazole-5-carboxamide]: the figures for the IC50 (in assay [1]; at RIPK2 (KD)/XIAP (BIR2)) were < 100 nM and < 10 nM, respectively. Also, the Emax on RIPK2 (KD)/XIAP (BIR2) was ≥ 80%.

Turning to `COc1cc2ncc(-c3cc(C(=O)NCc4cccc(F)n4)n(C)n3)n2cc1S(=O)(=O)C(C)(C)C` [Example 52, 3-(6-(tert-butylsulfonyl)-7-methoxyimidazo[1,2-a]pyridin-3-yl)-N-((6-fluoropyridin-2-yl)methyl)-1-methyl-1H-pyrazole-5-carboxamide], the IC50 was > 2500 nM in assay [1] and 100 to 1000 nM at RIPK2 (KD)/XIAP (BIR2). Moreover, the Emax at RIPK2 (KD)/XIAP (BIR2) was ≥ 80%.

Take `COc1cc2ncc(-c3cc(C(=O)NCc4nc(C)cs4)n(C)n3)n2cc1S(=O)(=O)C(C)(C)C` [Example 88, 3-(6-(tert-butylsulfonyl)-7-methoxyimidazo[1,2-a]pyridin-3-yl)-1-methyl-N-((4-methylthiazol-2-yl)methyl)-1H-pyrazole-5-carboxamide]: the IC50 in assay [1] lay in the range of 500 to 2500 nM. For the same compound, on RIPK2 (KD)/XIAP (BIR2), the Emax is ≥ 80% and the concentration for half-maximal inhibition (IC50) lay within 100 to 1000 nM.

For `CC(C)n1nc(-c2cnc3cc(OCCO)c(S(=O)(=O)C(C)(C)C)cn23)cc1C(=O)N[C@H](C)c1ncccn1` [Example 137, (R)-3-(6-(tert-butylsulfonyl)-7-(2-hydroxyethoxy)imidazo[1,2-a]pyridin-3-yl)-1-isopropyl-N-(1-(pyrimidin-2-yl)ethyl)-1H-pyrazole-5-carboxamide], the concentration for half-maximal inhibition (IC50) in assay [1] was < 100 nM. In addition, at RIPK2 (KD)/XIAP (BIR2), the Emax was ≥ 80% and the IC50 was < 10 nM.

On to `COc1cc2ncc(-c3cc(C(=O)NCc4noc(C)n4)n(C)n3)n2cc1S(=O)(=O)C(C)(C)C` [Example 77, 3-(6-(tert-butylsulfonyl)-7-methoxyimidazo[1,2-a]pyridin-3-yl)-1-methyl-N-((5-methyl-1,2,4-oxadiazol-3-yl)methyl)-1H-pyrazole-5-carboxamide], for which the IC50 in assay [1] was > 2500 nM. Also, at RIPK2 (KD)/XIAP (BIR2), the Emax is ≥ 80% and the concentration for half-maximal inhibition (IC50) was 100 to 1000 nM.

In the case of `COc1cc2ncc(-c3cc(C(=O)N[C@H](C)c4ccc(F)cn4)n(C)n3)n2cc1S(=O)(=O)C(C)(C)C` [Example 48, (R)-3-(6-(tert-butylsulfonyl)-7-methoxyimidazo[1,2-a]pyridin-3-yl)-N-(1-(5-fluoropyridin-2-yl)ethyl)-1-methyl-1H-pyrazole-5-carboxamide], the half-maximal inhibitory concentration (IC50) in assay [1] was 500 to 2500 nM; on RIPK2 (KD)/XIAP (BIR2), 10 to 100 nM. On RIPK2 (KD)/XIAP (BIR2), the Emax is ≥ 80%.

For the compound `COc1cc2ncc(-c3cc(C(=O)NCc4cccnc4)n(C)n3)n2cc1S(=O)(=O)C(C)(C)C` [Example 27, 3-(6-(tert-butylsulfonyl)-7-methoxyimidazo[1,2-a]pyridin-3-yl)-1-methyl-N-(pyridin-3-ylmethyl)-1H-pyrazole-5-carboxamide], the IC50 in assay [1] is > 2500 nM. On RIPK2 (KD)/XIAP (BIR2), the Emax was 55 to 80% and the concentration for half-maximal inhibition (IC50) was > 1000 nM.

On to `CNc1nccn2c(-c3cc(C(=O)N[C@H](C)c4ccccc4)n(C)n3)cnc12` [Example 190, (R)-1-methyl-3-(8-(methylamino)imidazo [1,2-a]pyrazin-3-yl)-N-(1-phenylethyl)-1H-pyrazole-5-carboxamide], for which the 50% inhibitory concentration (IC50) in assay [1] was > 2500 nM; on RIPK2 (KD)/XIAP (BIR2), > 1000 nM. Besides, the Emax at RIPK2 (KD)/XIAP (BIR2) was in the range of 30 to 55%.

On to `COc1cc2ncc(-c3cc(C(=O)N[C@H](C)c4ncccn4)n(C(C)C)n3)n2cc1S(=O)(=O)C(C)(C)C` [Example 102, (R)-3-(6-(tert-butylsulfonyl)-7-methoxyimidazo[1,2-a]pyridin-3-yl)-1-isopropyl-N-(1-(pyrimidin-2-yl)ethyl)-1H-pyrazole-5-carboxamide], for which the IC50 in assay [1] is < 100 nM. Further, at RIPK2 (KD)/XIAP (BIR2), the Emax was ≥ 80% and the IC50 is < 10 nM.

As to `COc1cc2ncc(-n3cc(C(=O)NCc4ccccc4)c(C)n3)n2cc1S(=O)(=O)C(C)(C)C` [Example 148, N-benzyl-1-(6-(tert-butylsulfonyl)-7-methoxyimidazo[1,2-a]pyridin-3-yl)-3-methyl-1H-pyrazole-4-carboxamide], the IC50 was > 2500 nM in assay [1] and 100 to 1000 nM at RIPK2 (KD)/XIAP (BIR2). Also, the Emax on RIPK2 (KD)/XIAP (BIR2) was ≥ 80%.

As to `COc1cc2ncc(-c3cc(C(=O)NCc4cnn5ccccc45)n(C)n3)n2cc1S(=O)(=O)C(C)(C)C` [Example 17, 3-(6-(tert-butylsulfonyl)-7-methoxyimidazo[1,2-a]pyridin-3-yl)-1-methyl-N-(pyrazolo[1,5-a]pyridin-3-ylmethyl)-1H-pyrazole-5-carboxamide], the IC50 was > 2500 nM in assay [1] and > 1000 nM at RIPK2 (KD)/XIAP (BIR2). Further, the Emax at RIPK2 (KD)/XIAP (BIR2) is 55 to 80%.
